# Source: the supplement of paper PMC10307832
# Compound: CC1=CC(=C(N1C2=CC=C(C=C2)Cl)C)C(=O)CN3CCCCC3 [IU1-47] + CC(=O)c1c(C)c2cnc(Nc3ccc(N4CCNCC4)cn3)nc2n(C2CCCC2)c1=O [Palbociclib] (partner 0.5 µM)
# Test: relative viability (nuclei count vs DMSO), 5 days (fraction); higher = more cells survive
# Conditions: first compound 8 µM
# Outline: (§1)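 Relative viability is defined as nuclei in treated wells over nuclei in vehicle wells. Duplicate plates were run and medians reported. Lung cancer cell lines in 1536-well plates were dosed by pin tool one day after seeding, with one drug or with a fixed anchor-drug dose plus five library-drug doses (not always all listed) in √10 steps, and nuclei were counted after 5 days.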
row,Cell Line,relative viability
1,NCI-H1355,0.37
2,NCI-H3122,0.212
3,NCI-H1437,0.294
4,NCI-H1755,0.436

# Compound: CC1=CC(=C(N1C2=CC=C(C=C2)Cl)C)C(=O)CN3CCCCC3 [IU1-47] + N=C(N)NC(=N)NCCc1ccccc1 [Phenformin] (partner 250 µM)
# Test: as above
# Conditions: first compound 0.08 µM
# Outline: as §1
row,Cell Line,relative viability
1,NCI-H2405,0.404
2,HOP-62,0.756
3,HCC-44,0.167
4,SW 900,0.628
5,LU99A,0.846
6,BEN,0.263
7,HARA,0.594
8,HCC-78,0.679
9,NCI-H322M,0.825
10,LCLC-97TM1,0.441
11,NCI-H2009,0.519
12,A-427,0.342
13,NCI-H441,0.994
14,NCI-H661,0.286
15,NCI-H1734,0.441
16,NCI-H460,0.599
17,NCI-H2347,0.387

row,Cell Line,relative viability
1,SK-LU-1,0.574
2,NCI-H1395,0.408
3,201T,0.419
4,NCI-H1915,0.373
5,HCC-827,0.44
6,LXF-289,0.533
7,NCI-H23,0.757
8,NCI-H647,0.449
9,CAL-12T,0.525
10,NCI-H1651,0.342
11,EPLC-272H,0.294
12,NCI-H2228,0.413
13,NCI-H1792,0.302
14,NCI-H1355,0.432
15,NCI-H3122,0.398
16,NCI-H1437,0.337
17,NCI-H1755,0.684

# Same assay, conditions: first compound 0.253 µM
row,Cell Line,relative viability
1,NCI-H2405,0.415
2,HOP-62,0.792
3,HCC-44,0.183
4,SW 900,0.539
5,LU99A,0.838
6,BEN,0.24
7,HARA,0.478
8,HCC-78,0.691
9,NCI-H322M,0.768
10,LCLC-97TM1,0.409
11,NCI-H2009,0.501
12,A-427,0.313
13,NCI-H441,0.978
14,NCI-H661,0.295
15,NCI-H1734,0.423
16,NCI-H460,0.536
17,NCI-H2347,0.413

row,Cell Line,relative viability
1,SK-LU-1,0.507
2,NCI-H1395,0.456
3,201T,0.435
4,NCI-H1915,0.354
5,HCC-827,0.425
6,LXF-289,0.563
7,NCI-H23,0.884
8,NCI-H647,0.597
9,CAL-12T,0.576
10,NCI-H1651,0.308
11,EPLC-272H,0.298
12,NCI-H2228,0.434
13,NCI-H1792,0.249
14,NCI-H1355,0.501
15,NCI-H3122,0.373
16,NCI-H1437,0.272
17,NCI-H1755,0.665

# Same assay, conditions: first compound 0.8 µM
row,Cell Line,relative viability
1,NCI-H2405,0.386
2,HOP-62,0.719
3,HCC-44,0.143
4,SW 900,0.444
5,LU99A,0.856
6,BEN,0.27
7,HARA,0.567
8,HCC-78,0.671
9,NCI-H322M,0.789
10,LCLC-97TM1,0.435
11,NCI-H2009,0.5
12,A-427,0.306
13,NCI-H441,0.787
14,NCI-H661,0.28
15,NCI-H1734,0.369
16,NCI-H460,0.614
17,NCI-H2347,0.336

row,Cell Line,relative viability
1,SK-LU-1,0.487
2,NCI-H1395,0.472
3,201T,0.486
4,NCI-H1915,0.342
5,HCC-827,0.416
6,LXF-289,0.541
7,NCI-H23,0.904
8,CAL-12T,0.613
9,NCI-H1651,0.373
10,EPLC-272H,0.23
11,NCI-H2228,0.315
12,NCI-H1792,0.197
13,NCI-H1355,0.441
14,NCI-H3122,0.366
15,NCI-H1437,0.25
16,NCI-H1755,0.698

# Same assay, conditions: first compound 2.53 µM
row,Cell Line,relative viability
1,NCI-H2405,0.371
2,HOP-62,0.675
3,HCC-44,0.221
4,SW 900,0.532
5,LU99A,0.813
6,HCC-78,0.671
7,NCI-H322M,0.809
8,LCLC-97TM1,0.428
9,NCI-H2009,0.486
10,NCI-H441,0.887
11,NCI-H661,0.245
12,NCI-H460,0.532
13,NCI-H2347,0.496
14,SK-LU-1,0.581
15,NCI-H1395,0.436
16,HCC-827,0.464
17,LXF-289,0.517
18,NCI-H23,0.678
19,NCI-H647,0.553
20,CAL-12T,0.472
21,NCI-H1651,0.319
22,NCI-H2228,0.32
23,NCI-H1792,0.174
24,NCI-H3122,0.372
25,NCI-H1437,0.341
26,NCI-H1755,0.613

# Same assay, conditions: first compound 8 µM
row,Cell Line,relative viability
1,NCI-H2405,0.365
2,HOP-62,0.543
3,HCC-44,0.183
4,SW 900,0.661
5,LU99A,0.904
6,BEN,0.275
7,HARA,0.537
8,HCC-78,0.617
9,NCI-H322M,0.633
10,LCLC-97TM1,0.461
11,NCI-H2009,0.412
12,A-427,0.229
13,NCI-H441,0.787
14,NCI-H661,0.291
15,NCI-H1734,0.376
16,NCI-H460,0.313
17,NCI-H2347,0.345

row,Cell Line,relative viability
1,SK-LU-1,0.419
2,NCI-H1395,0.374
3,201T,0.362
4,NCI-H1915,0.332
5,HCC-827,0.37
6,LXF-289,0.439
7,NCI-H23,0.828
8,NCI-H647,0.238
9,CAL-12T,0.554
10,NCI-H1651,0.297
11,EPLC-272H,0.243
12,NCI-H2228,0.262
13,NCI-H1792,0.183
14,NCI-H1355,0.398
15,NCI-H3122,0.347
16,NCI-H1437,0.297
17,NCI-H1755,0.662

# Compound: CC1=CC(=C(N1C2=CC=C(C=C2)Cl)C)C(=O)CN3CCCCC3 [IU1-47] + COc1cccc2cc(-c3nc([C@H]4CC[C@H](C(=O)O)CC4)n4ncnc(N)c34)[nH]c12 [OSI-027] (partner 0.5 µM)
# Test: as above
# Conditions: first compound 0.08 µM
# Outline: as §1
row,Cell Line,relative viability
1,NCI-H2405,0.664
2,HOP-62,0.918
3,HCC-44,0.403
4,SW 900,0.508
5,LU99A,0.246
6,BEN,0.294
7,HARA,0.554
8,HCC-78,0.38
9,NCI-H322M,0.677
10,LCLC-97TM1,0.62
11,NCI-H2009,0.662
12,A-427,0.454
13,NCI-H441,0.74
14,NCI-H661,0.81
15,NCI-H1734,0.703
16,NCI-H460,0.795
17,NCI-H2347,0.318

row,Cell Line,relative viability
1,SK-LU-1,0.4
2,NCI-H1395,0.58
3,201T,0.747
4,NCI-H1915,0.614
5,HCC-827,0.944
6,LXF-289,0.913
7,NCI-H23,0.644
8,NCI-H647,0.744
9,CAL-12T,0.764
10,NCI-H1651,0.651
11,EPLC-272H,0.326
12,NCI-H2228,0.619
13,NCI-H1792,0.816
14,NCI-H1355,0.396
15,NCI-H3122,1.07
16,NCI-H1437,0.873
17,NCI-H1755,0.759

# Same assay, conditions: first compound 0.253 µM
row,Cell Line,relative viability
1,NCI-H2405,0.663
2,HOP-62,0.93
3,HCC-44,0.483
4,SW 900,0.45
5,LU99A,0.303
6,BEN,0.302
7,HARA,0.406
8,HCC-78,0.354
9,NCI-H322M,0.553
10,LCLC-97TM1,0.551
11,NCI-H2009,0.672
12,A-427,0.472
13,NCI-H441,0.724
14,NCI-H661,0.753
15,NCI-H1734,0.659
16,NCI-H460,0.737
17,NCI-H2347,0.456

row,Cell Line,relative viability
1,SK-LU-1,0.32
2,NCI-H1395,0.621
3,201T,0.784
4,NCI-H1915,0.626
5,HCC-827,0.895
6,LXF-289,0.768
7,NCI-H23,0.587
8,NCI-H647,0.605
9,CAL-12T,0.635
10,NCI-H1651,0.717
11,EPLC-272H,0.325
12,NCI-H2228,0.581
13,NCI-H1792,0.771
14,NCI-H1355,0.427
15,NCI-H3122,0.961
16,NCI-H1437,0.886
17,NCI-H1755,0.876

# Same assay, conditions: first compound 0.8 µM
row,Cell Line,relative viability
1,NCI-H2405,0.695
2,HOP-62,0.901
3,HCC-44,0.593
4,SW 900,0.677
5,LU99A,0.337
6,BEN,0.296
7,HARA,0.456
8,HCC-78,0.337
9,NCI-H322M,0.632
10,LCLC-97TM1,0.531
11,NCI-H2009,0.676
12,A-427,0.453
13,NCI-H441,0.572
14,NCI-H661,0.63
15,NCI-H1734,0.662
16,NCI-H460,0.835
17,NCI-H2347,0.43

row,Cell Line,relative viability
1,SK-LU-1,0.309
2,NCI-H1395,0.665
3,201T,0.886
4,NCI-H1915,0.599
5,HCC-827,0.85
6,LXF-289,0.811
7,NCI-H23,0.695
8,CAL-12T,0.675
9,NCI-H1651,0.726
10,EPLC-272H,0.253
11,NCI-H2228,0.662
12,NCI-H1792,0.879
13,NCI-H1355,0.402
14,NCI-H3122,1.05
15,NCI-H1437,0.92
16,NCI-H1755,0.777

# Same assay, conditions: first compound 2.53 µM
row,Cell Line,relative viability
1,NCI-H2405,0.533
2,HOP-62,0.771
3,HCC-44,0.434
4,SW 900,0.61
5,LU99A,0.298
6,HCC-78,0.42
7,NCI-H322M,0.568
8,LCLC-97TM1,0.583
9,NCI-H2009,0.558
10,NCI-H441,0.535
11,NCI-H661,0.799
12,NCI-H460,0.822
13,NCI-H2347,0.398
14,SK-LU-1,0.362
15,NCI-H1395,0.387
16,201T,0.813
17,HCC-827,0.889
18,LXF-289,0.591
19,NCI-H23,0.583
20,NCI-H647,0.7
21,CAL-12T,0.631
22,NCI-H1651,0.671
23,NCI-H2228,0.368
24,NCI-H1792,0.566
25,NCI-H3122,0.987
26,NCI-H1437,0.854
27,NCI-H1755,0.729

# Same assay, conditions: first compound 8 µM
row,Cell Line,relative viability
1,NCI-H2405,0.618
2,HOP-62,0.712
3,HCC-44,0.389
4,SW 900,0.414
5,LU99A,0.317
6,BEN,0.268
7,HARA,0.413
8,HCC-78,0.353
9,NCI-H322M,0.553
10,LCLC-97TM1,0.513
11,NCI-H2009,0.593
12,A-427,0.463
13,NCI-H441,0.676
14,NCI-H661,0.647
15,NCI-H1734,0.565
16,NCI-H460,0.505
17,NCI-H2347,0.375

row,Cell Line,relative viability
1,SK-LU-1,0.323
2,NCI-H1395,0.554
3,201T,0.832
4,NCI-H1915,0.581
5,HCC-827,0.543
6,LXF-289,0.736
7,NCI-H23,0.597
8,NCI-H647,0.478
9,CAL-12T,0.683
10,NCI-H1651,0.622
11,EPLC-272H,0.259
12,NCI-H2228,0.39
13,NCI-H1792,0.691
14,NCI-H1355,0.395
15,NCI-H3122,0.954
16,NCI-H1437,0.815
17,NCI-H1755,0.686
